pIC50: −log10 of the molar value. Structures can show the parent of a compound that is named as a salt. Where two headings read alike, the source gives them in different places.
Tests used:
[1] = system: Diet Induced Obese (DIO) C57BL/6 mice; experiment: 10 day DIO mouse model, weight loss vs. vehicle; format: in vivo; settings: 240 h, 0.3 mpk sc once a day for 10 days
Source text: The objective of this study design was to investigate the efficacy of disclosed compounds in a 10 day DIO mouse model. Effects on body weight, food intake, hematology and blood chemistry were the primary readouts of this study design. Male, Diet Induced Obese (DIO) C57BL/6 mice, 19-21 weeks of age (13-15 weeks on high fat diet) were ordered from a certified vendor and upon receipt were housed on irradiated corncob bedding in micro-isolator cages on a 12-hour light-dark cycle (0700-1900) at 68-74° F. and 30-70% humidity. Mice were fed Research Diets D12492 (60% Kcal fat, 20% Kcal carbohydrate and 20% protein) and provided water ad libitum. DIO mice were received and housed in the facility for approximately two weeks prior to the start of test article administration. On Day −4 or −3, mice were randomized into study groups based on body weight and body weights were continued to be recorded daily for the duration of the study. Daily food intake was assessed starting on Study Day −2 by weighing of the food with hopper together to avoid loss of food in transfer.
Compounds were formulated into a 100% DMSO stock (at 9 mg/mL) prior to the start, and further diluted into the target working concentration using the vehicle of 10% DMSO in water. Prior to test article administration, starting on Day −3 a dosing acclimation occured with all animals receiving a subcutaneous injection of vehicle (10% DMSO) only for 3 days. Starting on Day 1, test compounds or vehicle were administered based on individual body weight, subcutaneously, once a day for 10 days. All mice were sacrificed on Day 11, 24 hours following the final dosing on Day 10. After sacrifice, whole blood was collected and analyzed for hematology and blood chemistry parameters.
Compounds were tested for weight loss vs. vehicle at 0.3 and 1.0 mpk sc (mg per kg animal weight delivered subcutaneously), and the results are shown in Table 2 below.

[2] = molecular target: T1, recombinant human MetAP2 (Homo sapiens, UniProt P50579); experiment: Inhibition of recombinant human MetAP2 activity (MAS peptide / amino acid oxidase / Amplex assay); format: biochemical
T1 construct: Flag; made in house
Experimental: Compounds are tested for their capacity to inhibit recombinant human MetAP2 activity using the following assay.
Flag tagged Human recombinant MetAP2 expressed and isolated for use as the enzyme source. 10 mM stock solutions of compounds were prepared in 100% DMSO and further diluted in 100% DMSO required concentration to 1 mM stocks. The stock compound solutions and DMSO vehicle controls were diluted to target final compound concentrations using assay buffer to a final concentration of 50 mM HEPES containing 100 mM NaCl, pH adjusted to 7.5. The MAS peptide was formulated to a 7.5 mM stock in distilled water and prior to use further diluted 1:4. […] 40 μl of enzyme was mixed with 100 μl of MnCl2 then further diluted in assay buffer to a final concentration of 16 μg/ml. To test for compound effect on MetAP2 enzyme activity, 5 μl of test compound, 10 μl of MAS substrate/amino acid oxidase mixture, 10 μl of MetAP2 was added to test wells in a 384 well black plate with blank wells containing no enzyme, replaced with 10 μl of assay buffer. All compounds were tested in duplicate on two occasions on the same day.
The plate was sealed with a TopSeal A cover and mixed briefly on an orbital mixer at 900 rpm. The plate was incubated for a further 25 minutes at 25° C. A 5× stock of Amplex buffer was prepared (0.25M sodium phosphate, pH 7.4) and stored at 4° C. When preparing for use the stock was diluted with distilled water. […] Horse radish peroxidase was diluted in […] of Amplex buffer, 100 μl of this was combined with 50 μl of Amplex Ultrared in […] of 1× Amplex buffer to generate sufficient detection reagent for a 384 well plate. 25 μl detection reagent was added to each well of the test plate, which was re-sealed and mixed briefly on an orbital shaker. The plate was transferred to an Envision Multi-label reader and RFU measured corresponding to excitation 531 nm and emission 595 nm. At the end of the MetAP2 incubation 25 μl Amplex/HRP mixture per well was added and the plate read plate on a plate reader.

[3] = Flag tagged human recombinant MetAP2, 25 minutes at 25° C., read-out: MetAP2 IC50

T1 sequence (P50579 whole entry): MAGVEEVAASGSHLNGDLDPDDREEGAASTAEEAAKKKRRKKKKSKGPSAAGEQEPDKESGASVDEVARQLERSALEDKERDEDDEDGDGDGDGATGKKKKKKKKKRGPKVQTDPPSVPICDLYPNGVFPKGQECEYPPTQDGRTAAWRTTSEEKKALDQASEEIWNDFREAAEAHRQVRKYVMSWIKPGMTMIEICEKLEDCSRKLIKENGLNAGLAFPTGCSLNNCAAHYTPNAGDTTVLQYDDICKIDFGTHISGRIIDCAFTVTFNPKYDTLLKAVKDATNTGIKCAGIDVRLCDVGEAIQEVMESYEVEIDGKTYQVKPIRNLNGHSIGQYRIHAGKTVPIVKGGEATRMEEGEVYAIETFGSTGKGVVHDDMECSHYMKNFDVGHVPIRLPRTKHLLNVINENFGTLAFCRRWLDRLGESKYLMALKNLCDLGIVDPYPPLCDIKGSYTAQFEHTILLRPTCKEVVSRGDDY

SMILES | inhibition in vivo at 0.3 mg/kg [1] | pIC50 [2, 3] | pIC50 [2]
CO[C@@H]1[C@H](OC(=O)NC2CC3(CCN(C)CC3)C2)CC[C@]2(CO2)[C@H]1[C@@]1(C)O[C@@H]1CC=C(C)C [Example 7, (3R,4S,5S,6R)-5-methoxy-4-((2R,3R)-2-methyl-3-(3-methylbut-2-enyl)oxiran-2-yl)-1-oxaspiro[2.5]octan-6-yl 7-methyl-7-azaspiro[3.5]nonan-2-ylcarbamate formate] | 1.9% | > 7.30 | 
CO[C@@H]1[C@H](OC(=O)N2CC3(CCN(C)CC3)C2)CC[C@]2(CO2)[C@H]1[C@@]1(C)O[C@@H]1CC=C(C)C [Example 8, (3R,4S,5S,6R)-5-methoxy-4-((2R,3R)-2-methyl-3-(3-methylbut-2-enyl)oxiran-2-yl)-1-oxaspiro[2.5]octan-6-yl 7-methyl-2,7-diazaspiro[3.5]nonane-2-carboxylate formate] | 6.2% | > 7.30 | 
CO[C@@H]1[C@H](OC(=O)NC2CC3(CCN(C)C3)C2)CC[C@]2(CO2)[C@H]1[C@@]1(C)O[C@@H]1CC=C(C)C (stereo partly drawn) [Example 11, (3R,4S,5S,6R)-5-methoxy-4-((2R,3R)-2-methyl-3-(3-methylbut-2-enyl)oxiran-2-yl)-1-oxaspiro[2.5]octan-6-yl 6-methyl-6-azaspiro[3.4]octan-2-ylcarbamate formate] | 6% |  | > 7.30
CO[C@@H]1[C@H](OC(=O)N2CC3(CN(C)C3)C2)CC[C@]2(CO2)[C@H]1[C@@]1(C)O[C@@H]1CC=C(C)C [Example 12, (3R,4S,5S,6R)-5-methoxy-4-((2R,3R)-2-methyl-3-(3-methylbut-2-enyl)oxiran-2-yl)-1-oxaspiro[2.5]octan-6-yl 6-methyl-2,6-diazaspiro[3.3]heptane-2-carboxylate] | 1.8% | > 7.30 | 
CO[C@@H]1[C@H](OC(=O)N2CCC3(CN(CC(F)F)C3)C2)CC[C@]2(CO2)[C@H]1[C@@]1(C)O[C@@H]1CC=C(C)C [Example 15, (3R,4S,5S,6R)-5-methoxy-4-((2R,3R)-2-methyl-3-(3-methylbut-2-enyl)oxiran-2-yl)-1-oxaspiro[2.5]octan-6-yl 2-(2,2-difluoroethyl)-2,6-diazaspiro[3.4]octane-6-carboxylate] | 22.5% |  | 
CO[C@@H]1[C@H](OC(=O)N2CCC3(CCN(CC(F)F)CC3)C2)CC[C@]2(CO2)[C@H]1[C@@]1(C)O[C@@H]1CC=C(C)C [Example 16, (3R,4S,5S,6R)-5-methoxy-4-((2R,3R)-2-methyl-3-(3-methylbut-2-enyl)oxiran-2-yl)-1-oxaspiro[2.5]octan-6-yl 8-(2,2-difluoroethyl)-2,8-diazaspiro[4.5]decane-2-carboxylate] | 23.4% |  | 
CO[C@@H]1[C@H](OC(=O)N2C[C@H]3CN(C)C[C@H]3C2)CC[C@]2(CO2)[C@H]1[C@@]1(C)O[C@@H]1CC=C(C)C [Example 20, (3aR,6aS)-((3R,4S,5S,6R)-5-methoxy-4-((2R,3R)-2-methyl-3-(3-methylbut-2-enyl)oxiran-2-yl)-1-oxaspiro[2.5]octan-6-yl) 5-methylhexahydropyrrolo[3,4-c]pyrrole-2(1H)-carboxylate formate] | 1.4% | > 7.30 | 
CO[C@@H]1[C@H](OC(=O)N2CC3CC3C2)CC[C@]2(CO2)[C@H]1[C@@]1(C)O[C@@H]1CC=C(C)C (stereo partly drawn) [Example 21, (3R,4S,5S,6R)-5-methoxy-4-((2R,3R)-2-methyl-3-(3-methylbut-2-enyl)oxiran-2-yl)-1-oxaspiro[2.5]octan-6-yl 3-azabicyclo[3.1.0]hexane-3-carboxylate] | 21.2% |  | 
CO[C@@H]1[C@H](OC(=O)N2CC3(C2)CS(=O)(=O)C3)CC[C@]2(CO2)[C@H]1[C@@]1(C)O[C@@H]1CC=C(C)C [Example 23, (3R,4S,5S,6R)-5-methoxy-4-((2R,3R)-2-methyl-3-(3-methylbut-2-enyl)oxiran-2-yl)-1-oxaspiro[2.5]octan-6-yl 2-thia-6-azaspiro[3.3]heptane 2,2-dioxide-6-carboxylate] | 2% |  | 6.30 to 7.30
CO[C@@H]1[C@H](OC(=O)N2CCC3(CCN(C)CC3)CC2)CC[C@]2(CO2)[C@H]1[C@@]1(C)O[C@@H]1CC=C(C)C [Example 28, (3R,4S,5S,6R)-5-methoxy-4-((2R,3R)-2-methyl-3-(3-methylbut-2-enyl)oxiran-2-yl)-1-oxaspiro[2.5]octan-6-yl 9-methyl-3,9-diazaspiro[5.5]undecane-3-carboxylate] | 8% |  | 
CO[C@@H]1[C@H](OC(=O)N2CCC3(CC2)CNC(=O)C3)CC[C@]2(CO2)[C@H]1[C@@]1(C)O[C@@H]1CC=C(C)C [Example 29, (3R,4S,5S,6R)-5-methoxy-4-((2R,3R)-2-methyl-3-(3-methylbut-2-enyl)oxiran-2-yl)-1-oxaspiro[2.5]octan-6-yl 3-oxo-2,8-diazaspiro[4.5]decane-8-carboxylate] | -0.5% |  | 
CO[C@@H]1[C@H](OC(=O)N2CCC3(CCNC(=O)C3)CC2)CC[C@]2(CO2)[C@H]1[C@@]1(C)O[C@@H]1CC=C(C)C [Example 30, (3R,4S,5S,6R)-5-methoxy-4-((2R,3R)-2-methyl-3-(3-methylbut-2-enyl)oxiran-2-yl)-1-oxaspiro[2.5]octan-6-yl 8-oxo-3,9-diazaspiro[5.5]undecane-3-carboxylate] | 1.1% |  | 
CO[C@@H]1[C@H](OC(=O)N2CCC3(CCN(C)C(=O)C3)CC2)CC[C@]2(CO2)[C@H]1[C@@]1(C)O[C@@H]1CC=C(C)C [Example 31, (3R,4S,5S,6R)-5-methoxy-4-((2R,3R)-2-methyl-3-(3-methylbut-2-enyl)oxiran-2-yl)-1-oxaspiro[2.5]octan-6-yl 9-methyl-8-oxo-3,9-diazaspiro[5.5]undecane-3-carboxylate] | 3.6% |  | 
CO[C@@H]1[C@H](OC(=O)N2C[C@@H]3[C@H](C2)[C@H]3C(=O)NCCN2CCOCC2)CC[C@]2(CO2)[C@H]1[C@@]1(C)O[C@@H]1CC=C(C)C [Example 37, (1R,5S,6R)-(3R,4S,5S,6R)-5-methoxy-4-((2R,3R)-2-methyl-3-(3-methylbut-2-en-1-yl)oxiran-2-yl)-1-oxaspiro[2.5]octan-6-yl 6-((2-morpholinoethyl)carbamoyl)-3-azabicyclo[3.1.0]hexane-3-carboxylate] | 4.3% |  | 
CO[C@@H]1[C@H](OC(=O)N2C[C@@H]3[C@@H](CN4CCOCC4)[C@@H]3C2)CC[C@]2(CO2)[C@H]1[C@@]1(C)O[C@@H]1CC=C(C)C [Example 40, (1R,5S,6S)-((3R,4S,5S,6R)-5-methoxy-4-((2R,3R)-2-methyl-3-(3-methylbut-2-enyl)oxiran-2-yl)-1-oxaspiro[2.5]octan-6-yl) 6-(morpholinomethyl)-3-azabicyclo[3.1.0]hexane-3-carboxylate] | 11.1% |  | 
COC(=O)N1C[C@@H]2CN(C(=O)O[C@@H]3CC[C@]4(CO4)[C@@H]([C@@]4(C)O[C@@H]4CC=C(C)C)[C@@H]3OC)C[C@@H]2C1 [Example 42, (3aR,6aS)-2-((3R,4S,5S,6R)-5-methoxy-4-((2R,3R)-2-methyl-3-(3-methylbut-2-enyl)oxiran-2-yl)-1-oxaspiro[2.5]octan-6-yl) 5-methyl tetrahydropyrrolo[3,4-c]pyrrole-2,5(1H,3H)-dicarboxylate] | 12.4% |  | 

Reference: patent US9944613B2, “Fumagillol spirocyclic compounds and fused bicyclic compounds and methods of making and using same” (Zafgen, Inc., priority 2015, dated 2018)
